“And” between values parts separate entries of the source, which are not always exact repeats. Identical values can stand only once.
Experiments:
[1] = system: peritoneal macrophages from C57Bl/6 mice; experiment: Cytotoxicity testing, MTT assay; format: cell-based, mouse (C57Bl/6); conditions: inhibitory concentrations 5–20 μg/mL, macrophages after collection of the supernatant
Method: Figure 4 Inhibition of nitric oxide (NO) production induced by lipopolisacharides (LPS) in macrophages. (A) Peritoneal macrophages from C57Bl/6 mice were treated with different concentrations of compounds 1–3 (1, 2, 5, 10, or 20 μg/mL) 1 h before the stimulus with LPS (1 μg/mL). After 24 h of stimulus with LPS, supernatants were collected for NO determination. (B) Cell viabilities were assessed using 3-(4,5-dimethylthiazol-2-yl)-2,5-diphenyltetrazolium bromide (MTT) assay after collection of the supernatant. Results represent mean ± S.E.M. and are representative of two different experiments. * P < 0.005 compared with LPS stimulus alone. C, control; Comp, compound. To evaluate the cytotoxicity of compounds 1–3, we used the MTT (Methylthiazolyldiphenyl-tetrazolium bromide) assay. Cell supernatants were removed for NO determination and were added to each well, 100 μL of MTT at a concentration of 0.5 mg/mL dissolved in RPMI. The assay plate was incubated overnight at 37 °C in 5% of CO2 atmosphere. In this assay the MTT is reduced to formazan by the activity of NAD-dependent dehydrogenase of living cell mitochondria to form a purple product. […] The color was analyzed at 570 nm using a micro-ELISA plate reader. The percent of viable cells was calculated using the formula: % viability = (ODsample × 100%)/(ODcontrol). […]

[2] = system: NO production by thioglycolate elicited peritoneal macrophages from C57Bl/6 mice stimulated with LPS; experiment: Inhibition of NO production induced by LPS in macrophages (Griess); format: cell-based, mouse (C57Bl/6); conditions: LPS 1 μg/mL; for IC50: Mus musculus, Peritoneal macrophage, primary murine macrophages, compound added 1 h before the stimulus, NO after 24 h
Text: The anti-inflammatory properties of diterpenes from natural sources have been described previously. However, anti-inflammatory activity of the briarellins family has not been evaluated before. The inhibition of NO production is frequently used as an indicator of anti-inflammatory activity. NO is produced by a family of enzymes called NO synthases (NOS) and it mediates many physiological processes. Inflammatory conditions lead to production of high levels of NO regulated by the inducible NOS (iNOS) enzyme. NO is produced by many cell types in vitro in response to several stimuli such as microbial products (e.g., bacterial lipopolisacharide (LPS)), cytokines, viral proteins, among others. We evaluated the production of NO by primary murine macrophages stimulated with LPS (1 μg/mL) in the presence or absence of different concentrations of compounds 1–3. […] The levels of NO found at higher concentrations (20 μg/mL) of compound 1 might be attributed to the non pyrogen-free conditions of the isolation and purification process of compounds. Possible contaminations with potential microbial products in the compounds preparations disguise the inhibitory effect expected at these concentrations. […] Further studies are necessary to find out if compound 3 is able to inhibit other signaling pathways leading to the production of inflammatory mediators different than NO.
Figure 4 Inhibition of nitric oxide (NO) production induced by lipopolisacharides (LPS) in macrophages. […] (B) Cell viabilities were assessed using 3-(4,5-dimethylthiazol-2-yl)-2,5-diphenyltetrazolium bromide (MTT) assay after collection of the supernatant. […]
To determine the anti-inflammatory capacity of compounds 1–3, thioglycolate elicited macrophages from C57Bl/6 mice were used. […] The concentration of NO was measured using the Griess Reagent System from Promega. […]
Data are presented as mean ± S.E.M. Results were analyzed using a statistical software package (GraphPad Prism 5). […]

Compound | Cell viability (MTT) [1] | IC50 [2] | Effect on the production of NO induced by LPS in macrophages ([2]; 1, 2, 5, 10 or 20 μg/mL, 24 h)
C=C1CC2OC3C4C(CC(=O)C(C)(O)C24)C(C)COC3(C)C(OC(=O)CCCCCCC)CC1O (centres unmarked) [compound 2, Briarellin S] | do not interfere with the cell viability | 10 µg/mL and 20.4 µM | –
CC(=O)CC1OC2[C@@H]3C(C[C@H](C)[C@H](OC(C)=O)[C@H]13)[C@H](C)CO[C@]2(C)/C=C/C=O (some centres unmarked) [compound 3, seco-asbestinin] | – | – | did not show any significant effect
CC(=O)CC1OC2C3C(CC(=O)C(C)(O)C13)C(C)COC2(C)C=CC=O (centres unmarked) [compound 1, seco-Briarellinone] | do not interfere with the cell viability | 1.71 µg/mL and 4.7 µM | –

From paper PMC3509539, “seco-Briarellinone and Briarellin S, Two New Eunicellin-Based Diterpenoids from the Panamanian Octocoral Briareum asbestinum” (Marine Drugs, 2012)
